Measured values: patent publication US9725449B2, “Tricyclic compounds as anticancer agents” (BRISTOL-MYERS SQUIBB COMPANY, priority 2015, dated 2017)

Target: BRD4 (Homo sapiens, UniProt O60885)
Experiment: Time resolved fluorescence resonance energy transfer (TR-FRET) binding assay, bromodomain BRD4
Settings: one of the FRET assays described; read-out: FRET BRD4 IC50

Row | Structure (SMILES) | IC50
1 | Cc1nnn(C)c1-c1cnc2c3ccc(N4CCN(S(=O)(=O)N(C)C)CC4)nc3n([C@H](c3ccccc3F)C3CCOCC3)c2c1 [Example 269, 4-[5-(Dimethyl-1H-1,2,3-triazol-5-yl)-8-[(S)-(2-fluorophenyl)(oxan-4-yl)methyl]-3,8,10-triazatricyclo[7.4.0.0^2,^7]trideca-1(13),2(7),3,5,9,11-hexaen-11-yl]-N,N-dimethylpiperazine-1-sulfonamide] | < 1 nM
2 | Cc1nnn(C)c1-c1cnc2c3ccc(N4CCN(C5CCN(C)CC5)CC4)nc3n([C@H](c3ccccc3F)C3CCOCC3)c2c1 [Example 270, 5-(Dimethyl-1H-1,2,3-triazol-5-yl)-8-[(S)-(2-fluorophenyl)(oxan-4-yl)methyl]-11-[4-(1-methylpiperidin-4-yl)piperazin-1-yl]-3,8,10-triazatricyclo[7.4.0.0^2,^7]trideca-1(13),2(7),3,5,9,11-hexaene] | < 1 nM
3 | Cc1nnn(C)c1-c1cnc2c3ccc(N4CCC(C(=O)N(C)C)CC4)nc3n([C@H](c3ccccc3F)C3CCOCC3)c2c1 [Example 271, 1-[5-(Dimethyl-1H-1,2,3-triazol-5-yl)-8-[(S)-(2-fluorophenyl)(oxan-4-yl)methyl]-3,8,10-triazatricyclo[7.4.0.0^2,^7]trideca-1(13),2(7),3,5,9,11-hexaen-11-yl]-N,N-dimethylpiperidine-4-carboxamide] | < 10 nM
4 | Cc1nnn(C)c1-c1cnc2c3ccc(N4CCC(C#N)CC4)nc3n([C@H](c3ccccc3F)C3CCOCC3)c2c1 [Example 274, 1-[5-(Dimethyl-1H-1,2,3-triazol-5-yl)-8-[(S)-(2-fluorophenyl)(oxan-4-yl)methyl]-3,8,10-triazatricyclo[7.4.0.0^2,^7]trideca-1(13),2(7),3,5,9,11-hexaen-11-yl]piperidine-4-carbonitrile] | < 10 nM
5 | Cc1nnn(C)c1-c1cnc2c3ccc(NC(=O)C(C)C)nc3n([C@H](c3ccccc3F)C3CCOCC3)c2c1 [Example 275, N-[5-(Dimethyl-1H-1,2,3-triazol-5-yl)-8-[(S)-(2-fluorophenyl)(oxan-4-yl)methyl]-3,8,10-triazatricyclo[7.4.0.0^2,^7]trideca-1(13),2(7),3,5,9,11-hexaen-11-yl]-2-methylpropanamide] | < 10 nM
6 | Cc1nnn(C)c1-c1cnc2c3ccc(NC(=O)C4CC4)nc3n([C@H](c3ccccc3F)C3CCOCC3)c2c1 [Example 276, N-[5-(Dimethyl-1H-1,2,3-triazol-5-yl)-8-[(S)-(2-fluorophenyl)(oxan-4-yl)methyl]-3,8,10-triazatricyclo[7.4.0.0^2,^7]trideca-1(13),2(7),3,5,9,11-hexaen-11-yl]cyclopropanecarboxamide] | < 10 nM
7 | [2H]C([2H])([2H])c1nnn(C)c1-c1cnc2c3c(NCC(F)(F)F)ncc(S(C)(=O)=O)c3n([C@H](c3ccccc3)C3CCOCC3)c2c1 [Example 277, 10-Methanesulfonyl-5-[4-(^2H3)methyl-1-methyl-1H-1,2,3-triazol-5-yl]-8-[(S)-oxan-4-yl(phenyl)methyl]-N-(2,2,2-trifluoroethyl)-3,8,12-triazatricyclo[7.4.0.0^2,^7]trideca-1(13),2(7),3,5,9,11-hexaen-13-amine] | < 1 nM
8 | [2H]C([2H])([2H])c1nnn(C)c1-c1cnc2c3cnc(C(C)(C)O)c(F)c3n([C@H](c3ccccc3)C3CCOCC3)c2c1 [Example 278, 2-{10-Fluoro-5-[4-(^2H3)methyl-1-methyl-1H-1,2,3-triazol-5-yl]-8-[(S)-oxan-4-yl(phenyl)methyl]-3,8,12-triazatricyclo[7.4.0.0^2,^7]trideca-1(13),2(7),3,5,9,11-hexaen-11-yl}propan-2-ol] | < 1 nM
9 | [2H]C([2H])([2H])c1nnn(C)c1-c1cnc2c3c(OCC4CC4(F)F)nccc3n([C@H](c3ccccc3)C3CCOCC3)c2c1 (stereo partly drawn) [Example 279, 13-[(2,2-Difluorocyclopropyl)methoxy]-5-[4-(^2H3)methyl-1-methyl-1H-1,2,3-triazol-5-yl]-8-[(S)-oxan-4-yl(phenyl)methyl]-3,8,12-triazatricyclo[7.4.0.0^2,^7]trideca-1(9),2(7),3,5,10,12-hexaene] | < 1 nM
10 | [2H]C([2H])([2H])c1nnn(C)c1-c1cnc2c3c(Cl)ncc(F)c3n([C@H](c3ccccc3)C3CCOCC3)c2c1 [Example 280, 13-Chloro-10-fluoro-5-[4-(^2H3)methyl-1-methyl-1H-1,2,3-triazol-5-yl]-8-[(S)-oxan-4-yl(phenyl)methyl]-3,8,12-triazatricyclo[7.4.0.0^2,^7]trideca-1(13),2(7),3,5,9,11-hexaene] | < 10 nM
11 | COc1cc2c(c(C)n1)c1ncc(-c3c(C)nnn3C)cc1n2[C@H](c1ccccc1)C1CCOCC1 [Example 283, 5-(Dimethyl-1H-1,2,3-triazol-5-yl)-11-methoxy-13-methyl-8-[(S)-oxan-4-yl(phenyl)methyl]-3,8,12-triazatricyclo[7.4.0.0^2,^7]trideca-1(9),2(7),3,5,10,12-hexaene] | < 1 nM
12 | [2H]C([2H])([2H])c1nnn(C)c1-c1cnc2c3cnc(C(C)(C)O)cc3n([C@H](c3ccccc3)C3CCOCC3)c2c1 [Example 284, 2-{5-[4-(^2H3)Methyl-1-methyl-1H-1,2,3-triazol-5-yl]-8-[(S)-oxan-4-yl(phenyl)methyl]-3,8,12-triazatricyclo[7.4.0.0^2,^7]trideca-1(9),2(7),3,5,10,12-hexaen-11-yl}propan-2-ol] | < 1 nM
13 | Cc1nnn(C)c1-c1cnc2c3cnc(C(C)(C)O)cc3n([C@H](c3ccccc3)C3CCOCC3)c2c1 [Example 285, 2-[5-(Dimethyl-1H-1,2,3-triazol-5-yl)-8-[(S)-oxan-4-yl(phenyl)methyl]-3,8,12-triazatricyclo[7.4.0.0^2,^7]trideca-1(9),2(7),3,5,10,12-hexaen-11-yl]propan-2-ol] | < 1 nM
14 | [2H]C([2H])([2H])c1nnn(C)c1-c1cnc2c3cncc(S(C)(=O)=O)c3n([C@H](c3ccccc3)C3CCOCC3)c2c1 [Example 286, 10-Methanesulfonyl-5-[4-(^2H3)methyl-1-methyl-1H-1,2,3-triazol-5-yl]-8-[(S)-oxan-4-yl(phenyl)methyl]-3,8,12-triazatricyclo[7.4.0.0^2,^7]trideca-1(13),2(7),3,5,9,11-hexaene] | < 10 nM
15 | [2H]C([2H])([2H])c1nnn(C)c1-c1cnc2c3cnc(OC)cc3n([C@H](c3ccccc3)C3CCOCC3)c2c1 [Example 287, 11-Methoxy-5-[4-(^2H3)methyl-1-methyl-1H-1,2,3-triazol-5-yl]-8-[(S)-oxan-4-yl(phenyl)methyl]-3,8,12-triazatricyclo[7.4.0.0^2,^7]trideca-1(9),2(7),3,5,10,12-hexaene] | < 1 nM
16 | [2H]C([2H])([2H])c1nnn(C)c1-c1cnc2c3cnc(OCC4CC4)cc3n([C@H](c3ccccc3)C3CCOCC3)c2c1 [Example 288, 11-(Cyclopropylmethoxy)-5-[4-(^2H3)methyl-1-methyl-1H-1,2,3-triazol-5-yl]-8-[(S)-oxan-4-yl(phenyl)methyl]-3,8,12-triazatricyclo[7.4.0.0^2,^7]trideca-1(9),2(7),3,5,10,12-hexaene] | < 1 nM
17 | Cc1nnn(C)c1-c1cnc2c3cncc(S(C)(=O)=O)c3n(C(c3ccccc3)C3CCC(F)(F)CC3)c2c1 (centres unmarked) [Example 289, 8-[(4,4-Difluorocyclohexyl)(phenyl)methyl]-5-(dimethyl-1H-1,2,3-triazol-5-yl)-10-methanesulfonyl-3,8,12-triazatricyclo[7.4.0.0^2,^7]trideca-1(13),2(7),3,5,9,11-hexaene] | < 1500 nM
